Assay results reported in US20100055168A1, “CATIONIC LIPIDS AND USES THEREOF” (ABBOTT LABORATORIES, priority 2008, published 2010).

Columns and labels:
[1] = Particle sizing assay of in vitro formulations (dynamic light scattering, DynaPro plate reader); type: physicochemical; settings: Lipid:siRNA 25:1
Experimental: (§1) The siRNA concentrations were measured using Quanti-iT RiboGreen RNA reagent (Molecular Probes, (R11490)). Vesicle sizes were characterized by dynamic light scattering with a DynaPro™ Plate Reader (Wyatt Technology) in 96-well half-area UV plate (Coring) after diluting the formulation sample (20 μL) in phosphate buffered saline (80 μL) at a pH of about 7-8. A 1% agarose gel-based assay was used for analyzing nuclease degradation and protection. Encapsulation efficiency (EE) was calculated using data obtained from a RiboGreen assay.
Particle sizes and size distributions (PDI) were characterized by using dynamic light scattering (DLS). A DLS plate reader (Dynapro™, Wyatt Technology) was used for the DLS measurement. This DLS plate reader uses an 830 nm laser and the scattering angle is 158°. It also can control temperature from 4° C. to 70° C. A 96-well format was employed for the samples.
Samples for DLS analysis were prepared by mixing 20 μL of each sample stock solution with 80 μL PBS directly in the 96-well plate (#3697, Coming). Sample mixing was accomplished using a microplate shaker (Orbis, Mikura Ltd.). Plates were read at 20° C. with an acquisition time of 50 seconds for each sample, and data was analyzed with Wyatt Technology's Dynamics V6 software. To rule out potential multiple scattering artifacts, a second plate at […] reduced sample concentrations was independently prepared by mixing 5 μL stock solutions with 95 μL PBS. Under our experimental conditions the results at the two concentrations were very similar, and the final reported result for each sample represents the average of values obtained from the two plates.

[2] = Ribogreen assay for siRNA encapsulation efficiency of Lipid-Based Particles; type: physicochemical; settings: Lipid:siRNA 25:1
Experimental: The mixing solution of cationic lipids, cholesterol, non-cationic lipids and PEG-lipids was prepared in ethanol (total concentration at 10 mg/mL). siSTABLE (purchased from ThermoFisher) (sense-5′ GGGGAAAGCUGGCAAGAUUUU-3′ SEQ ID NO: 1) antisense-5′-AAUCUUGCCAGCUUUCCCCUU-3′ SEQ ID NO: 2) % stock solution was prepared in 10 mg/mL of solution by dissolving 10 mg siRNA in 1 mL of RNAse-free UltraPure Water. The calculated amount of siRNA solution was added to 1 mL of citrate buffer (pH 4.0, 20 mM), to provide an siRNA concentration of 0.2 mg/mL, and warmed to 60° C. The calculated amount of lipid solution was warmed to 60° C., transferred to a 0.5 mL syringe with 28½ gauge needle, and injected into the citrate buffer with stirring at 60° C. After 3 minutes, 3 mL of PBS solution at room temperature (pH 7.4) was added into the lipid mixture with stirring. The Lipid-Based Particle solution was cooled to room temperature.
as §1
RNA concentration and encapsulation efficiency were determined using a Quant-iT® Ribogreen RNA reagent and kit available from Invitrogen. The siRNA was released from the Lipid-Based Particle using one of the following reagents: ethanol, Triton X-100, or phenol/chloroform. The siRNA concentration is quantified using fluorescent reading at 480 nm/520 nm.
A round bottom flask was submerged into a 65° C. water bath. Citrate buffer (37.5 ml) of pH 4.0 was pipetted into the flask. The solution was stirred by a magnetic stirring bar at a speed of 900 rpm. Both the pH 4.0 citrate buffer and the lipid solution were pre-warmed in the 65° C. water bath for about 3 minutes. A siRNA solution (0.5 ml) was pipetted into the pH 4.0 citrate buffer. The 12.5 ml lipid mixture solution was injected through a 27 gauge needle into the citrate buffer in about 30 seconds. The needle tip was inserted into the solution during the injection. The resulting solution was stirred for 5 minutes at a speed of 900 rpm. The flask was pulled up from the water bath and a 50 ml pH 7.4 PBS buffer was added into the flask. The final solution was further mixed at a speed of 900 rpm for 5 minutes. For the diafiltration process, a dialysis filter (Millipore, 100K, Cat #PXB100C50) was used to remove ethanol in the above solution. When the volume was reduced to 20 ml during the initial diafiltration, 20 ml of pH 7.4 PBS was added to the sample solution. The diafiltration was continued until the volume was reduced to 20 ml. The diafiltration process was repeated 4 times. The volume of the sample solution was reduced to about 12 ml and pH 7.4 PBS was added to make the final volume of 15 ml. The 15 ml solution was filtered sequentially through the 0.45 and 0.22 μm sterile PVDF membrane filters (Millipore) and immediately transferred into a sterile vial.

[3] = in vitro formulation a: Cationic lipid/Example 56/DSPC/Chol 45/10/15/30 wt %
[4] = in vitro formulation b: Cationic lipid/PEG-Chol/DSPC/Chol 45/10/15/30 wt %

| Size [1, 3] [nm] | % Encapsulation Efficiency [2, 4] [%] | other results | Compound |
| --- | --- | --- | --- |
| 170 | – | PDI (size distribution) [1, 3]: 0.20 | CCCCC/C=C\C/C=C\CCCCCCCCOCC(COCCCCCCCC/C=C\C/C=C\CCCCC)N1CCCC1 [Example 1, 1-(2-((9Z,12Z)-octadeca-9,12-dienyloxy)-1-(((9Z,12Z)-octadeca-9,12-dienyloxy)methyl)ethyl)pyrrolidine] |
| 134 | – | – | CCCCC/C=C\C/C=C\CCCCCCCCOCC(COCCCCCCCC/C=C\C/C=C\CCCCC)N(C)C [Example 2, N,N-dimethyl-N-(2-((9Z,12Z)-octadeca-9,12-dienyloxy)-1-(((9Z,12Z)-octadeca-9,12-dienyloxy)methyl)ethyl)amine] |
| 143 | – | PDI (size distribution) [1, 3]: 0.14 | CCCCC/C=C\C/C=C\CCCCCCCCOCC(COCCCCCCCC/C=C\C/C=C\CCCCC)N1CCOCC1 [Example 5, 4-(2-((9Z,12Z)-octadeca-9,12-dienyloxy)-1-(((9Z,12Z)-octadeca-9,12-dienyloxy)methyl)ethyl)morpholine] |
| – | 81.8 | Size [1, 4]: 107.6 nm | CCCCC/C=C\C/C=C\CCCCCCCCOCC(COCCCCCCCC/C=C\C/C=C\CCCCC)NCCN1CCN(C)CC1 [Example 8, N-(2-(4-methylpiperazin-1-yl)ethyl)-N-(2-((9Z,12Z)-octadeca-9,12-dienyloxy)-1-(((9Z,12Z)-octadeca-9,12-dienyloxy)methyl)ethyl)amine] |
| – | 72.6 | Size [1, 4]: 112 nm | CCCCC/C=C\C/C=C\CCCCCCCCOCC(COCCCCCCCC/C=C\C/C=C\CCCCC)N1CCN(CCCN(C)C)CC1 [Example 10, N,N-dimethyl-N-(3-(4-(2-((9Z,12Z)-octadeca-9,12-dienyloxy)-1-(((9Z,12Z)-octadeca-9,12-dienyloxy)methyl)ethyl)piperazin-1-yl)propyl)amine] |
| 132 | – | % Encapsulation Efficiency [2, 3]: 96.0% | CCCCC/C=C\C/C=C\CCCCCCCCOCC(N)COCCCCCCCC/C=C\C/C=C\CCCCC [Example 11, 1,3-bis((9Z,12Z)-octadeca-9,12-dienyloxy)propan-2-amine] |
| – | 84.9 | Size [1, 4]: 119.8 nm | CCCCC/C=C\C/C=C\CCCCCCCCOCC(COCCCCCCCC/C=C\C/C=C\CCCCC)NCC1CCN(C)CC1 [Example 12, N-((1-methylpiperidin-4-yl)methyl)-N-(2-((9Z,12Z)-octadeca-9,12-dienyloxy)-1-(((9Z,12Z)-octadeca-9,12-dienyloxy)methyl)ethyl)amine] |
| 146 | – | % Encapsulation Efficiency [2, 3]: 97.1% | CCCCC/C=C\C/C=C\CCCCCCCCOCC(COCCCCCCCC/C=C\C/C=C\CCCCC)NCc1cccc(CN2CCCC2)c1 [Example 13, N-(2-((9Z,12Z)-octadeca-9,12-dienyloxy)-1-(((9Z,12Z)-octadeca-9,12-dienyloxy)methyl)ethyl)-N-(3-(pyrrolidin-1-ylmethyl)benzyl)amine] |
| – | 88.3 | Size [1, 4]: 128.4 nm | CCCCC/C=C\C/C=C\CCCCCCCCOCC(COCCCCCCCC/C=C\C/C=C\CCCCC)N(C)CCCN1CCCC1 [Example 14, N-methyl-N-(2-((9Z,12Z)-octadeca-9,12-dienyloxy)-1-(((9Z,12Z)-octadeca-9,12-dienyloxy)methyl)ethyl)-N-(3-pyrrolidin-1-ylpropyl)amine] |
| 116 | – | % Encapsulation Efficiency [2, 3]: 96.2% | CCCCC/C=C\C/C=C\CCCCCCCCOCC(COCCCCCCCC/C=C\C/C=C\CCCCC)NCc1cccc(CN2CCN(C)CC2)c1 [Example 15, N-(3-((4-methylpiperazin-1-yl)methyl)benzyl)-N-(2-((9Z,12Z)-octadeca-9,12-dienyloxy)-1-(((9Z,12Z)-octadeca-9,12-dienyloxy)methyl)ethyl)amine] |
| – | 93.1 | Size [1, 4]: 130 nm | CCCCC/C=C\C/C=C\CCCCCCCCOCC(COCCCCCCCC/C=C\C/C=C\CCCCC)N(C)CC1CCN(C)CC1 [Example 16, N-methyl-N-((1-methylpiperidin-4-yl)methyl)-N-(2-((9Z,12Z)-octadeca-9,12-dienyloxy)-1-(((9Z,12Z)-octadeca-9,12-dienyloxy)methyl)ethyl)amine] |
| – | 91.7 | – | CCCCC/C=C\C/C=C\CCCCCCCCOCC(COCCCCCCCC/C=C\C/C=C\CCCCC)CN1CCCC1 [Example 24, 1-(3-((9Z,12Z)-octadeca-9,12-dienyloxy)-2-(((9Z,12Z)-octadeca-9,12-dienyloxy)methyl)propyl)pyrrolidine] |
| – | 92.3 | – | CCCCC/C=C\C/C=C\CCCCCCCCOCC(COCCCCCCCC/C=C\C/C=C\CCCCC)NCCCNCCCCNCCCN [Example 25, N-(3-aminopropyl)-N′-{3-[(2-[(9Z,12Z)-octadeca-9,12-dienyloxy]-1-{[(9Z,12Z)-octadeca-9,12-dienyloxy]methyl}ethyl)amino]propyl}butane-1,4-diamine] |
| – | 99.9 | – | CCCCC/C=C\C/C=C\CCCCCCCCOCC(CNCCCN1CCCC1)COCCCCCCCC/C=C\C/C=C\CCCCC [Example 26, N-(3-[(9Z,12Z)-octadeca-9,12-dienyloxy]-2-{[(9Z,12Z)-octadeca-9,12-dienyloxy]methyl}propyl)-N-(3-pyrrolidin-1-ylpropyl)amine] |
| – | 71.9 | – | CCCCC/C=C\C/C=C\CCCCCCCCOCC(COCCCCCCCC/C=C\C/C=C\CCCCC)CN(C)C [Example 27, N,N-dimethyl-N-(3-[(9Z,12Z)-octadeca-9,12-dienyloxy]-2-{[(9Z,12Z)-octadeca-9,12-dienyloxy]methyl}propyl)amine] |
| – | 93.0 | – | CCCCC/C=C\C/C=C\CCCCCCCCOCC(COCCCCCCCC/C=C\C/C=C\CCCCC)COC(=O)NCCN(CC)CC [Example 28, 3-[(9Z,12Z)-octadeca-9,12-dienyloxy]-2-{[(9Z,12Z)-octadeca-9,12-dienyloxy]methyl}propyl 2-(diethylamino)ethylcarbamate] |
| – | 95.0 | – | CCCCC/C=C\C/C=C\CCCCCCCCOCC(COCCCCCCCC/C=C\C/C=C\CCCCC)COC(=O)NCCN1CCCC1 [Example 29, 3-[(9Z,12Z)-octadeca-9,12-dienyloxy]-2-{[(9Z,12Z)-octadeca-9,12-dienyloxy]methyl}propyl 2-pyrrolidin-1-ylethylcarbamate] |
| – | 95.0 | – | CCCCC/C=C\C/C=C\CCCCCCCCOCC(COCCCCCCCC/C=C\C/C=C\CCCCC)COC(=O)NCCN(C)C [Example 30, 3-[(9Z,12Z)-octadeca-9,12-dienyloxy]-2-{[(9Z,12Z)-octadeca-9,12-dienyloxy]methyl}propyl 2-(dimethylamino)ethylcarbamate] |
